Laboratory results published in PMC10799935, “Discovery of a peripheral 5HT2A antagonist as a clinical candidate for metabolic dysfunction-associated steatohepatitis” (Nature Communications, 2024).

Assays:
[1] = Hepatocyte stability test, monkey; format: in vitro ADME, cynomolgus monkey; details: male, cryopreserved hepatocytes, pH 7.4, read-out: Hepatocyte stability (% remaining after 3 h)
Protocol: Hepatocyte incubations for the test compound (10 μM final concentration, n = 2 per each time point) were carried out in mouse, rat, dog, monkey and human cryopreserved hepatocytes, resuspended at a density of 0.5 million cells/ml of modified Krebs-Henseleit buffer (KHB). The information regarding the hepatocytes used in the experiment is as follows: liverPool® 10-donor mixed gender human (BioIVT, Cat.No. X008001, lot EAV), male cynomolgus monkey (BioIVT, Cat.No. M00305, lot COJ), male Beagle dog (BioIVT, Cat.No. M00205, lot USY), male Sprague Dawley rat (BioIVT, Cat.No. M00005, lot TQE) and male CD1 mouse (BioIVT, Cat.No.005052, lot LFF). In addition, the compound was also incubated with blank KHB. The final concentration of solvent (DMSO) was 0.1% of the final volume. The incubations were performed for 3 hours at 37°C and pH 7.4. Reactions were terminated at 0 and 180 minutes by the addition of 3 volumes of stop solution (acetonitrile/methanol (2:1, v/v) containing internal standard–diclofenac at 100 ng/ml). Samples (compound spiked buffer and compound spiked hepatocytes, as well as blank samples, i.e. hepatocytes with the same DMSO%) were then centrifuged and aliquots were transferred to 96-deep micronic tubes and frozen at -80 °C until LC-MS/MS analysis. […]

HFD-fed C57BL/6J mice = test: DIO mice: intraperitoneal glucose tolerance test (IPGTT); format: in vivo, mouse; set-up: Mean Diff. (Vehicle vs. 11c), GTT blood glucose / Mean 2 (11c group), GTT blood glucose: unit not given here; details: for Mean Diff. (Vehicle vs. 11c), GTT blood glucose: Dunnett's multiple comparisons test; for Significant? (Vehicle vs. 11c), GTT blood glucose: Dunnett's test, alpha 0.05; for Mean 2 (11c group), GTT blood glucose: test details, mixed-effects model
Protocol: For the glucose tolerance test, overnight fasted mice were intraperitoneally injected with 2 g/kg D-glucose (Sigma-Aldrich). Glucose concentrations were measured using a Gluco DR. TOP glucometer (Allmedicus). The AUC (area under the curve) during the GTT was calculated using GraphPad Prism 8.0 software (La Jolla, CA, USA) by the trapezoidal method.

SMILES: Cc1nc2n(c(=O)c1CCN1CCC(=C3c4ccc(Cl)cc4CCc4cccnc43)CC1)CCCC2O (centres unmarked) [Compound 11c]
- remaining at 3 h, 10 μM [1]: 84.6%
- Mean Diff. (Vehicle vs. 11c), GTT blood glucose (HFD-fed C57BL/6J mice; 5mpk, 0 min): 17.89
- Significant? (Vehicle vs. 11c), GTT blood glucose (HFD-fed C57BL/6J mice; 5mpk, 0 min): No
- Mean 2 (11c group), GTT blood glucose (HFD-fed C57BL/6J mice; 5mpk, 0 min): 206.4
- Mean Diff. (Vehicle vs. 11c), GTT blood glucose (HFD-fed C57BL/6J mice; 5mpk, 15 min): -1.429
- Significant? (Vehicle vs. 11c), GTT blood glucose (HFD-fed C57BL/6J mice; 5mpk, 15 min): No
- Mean 2 (11c group), GTT blood glucose (HFD-fed C57BL/6J mice; 5mpk, 15 min): 542.4
- Mean Diff. (Vehicle vs. 11c), GTT blood glucose (HFD-fed C57BL/6J mice; 5mpk, 30 min): 41.17
- Significant? (Vehicle vs. 11c), GTT blood glucose (HFD-fed C57BL/6J mice; 5mpk, 30 min): No
- Mean 2 (11c group), GTT blood glucose (HFD-fed C57BL/6J mice; 5mpk, 30 min): 575
- Mean Diff. (Vehicle vs. 11c), GTT blood glucose (HFD-fed C57BL/6J mice; 5mpk, 60 min): 150
- Significant? (Vehicle vs. 11c), GTT blood glucose (HFD-fed C57BL/6J mice; 5mpk, 60 min): Yes
- Mean 2 (11c group), GTT blood glucose (HFD-fed C57BL/6J mice; 5mpk, 60 min): 473.2
- Mean Diff. (Vehicle vs. 11c), GTT blood glucose (HFD-fed C57BL/6J mice; 5mpk, 90 min): 176.5
- Significant? (Vehicle vs. 11c), GTT blood glucose (HFD-fed C57BL/6J mice; 5mpk, 90 min): Yes
- Mean 2 (11c group), GTT blood glucose (HFD-fed C57BL/6J mice; 5mpk, 90 min): 359.1
- Mean Diff. (Vehicle vs. 11c), GTT blood glucose (HFD-fed C57BL/6J mice; 5mpk, 120 min): 168.6
- Significant? (Vehicle vs. 11c), GTT blood glucose (HFD-fed C57BL/6J mice; 5mpk, 120 min): Yes
- Mean 2 (11c group), GTT blood glucose (HFD-fed C57BL/6J mice; 5mpk, 120 min): 270.4
- Glucose tolerance (HFD-fed C57BL/6J mice; 5 or 10 mpk, DIO mice): improved
- Mean Diff. (Vehicle vs. 11c), GTT blood glucose (HFD-fed C57BL/6J mice; 10mpk, 0 min): 40.33
- Significant? (Vehicle vs. 11c), GTT blood glucose (HFD-fed C57BL/6J mice; 10mpk, 0 min): No
- Mean 2 (11c group), GTT blood glucose (HFD-fed C57BL/6J mice; 10mpk, 0 min): 183.9
- Mean Diff. (Vehicle vs. 11c), GTT blood glucose (HFD-fed C57BL/6J mice; 10mpk, 15 min): 13.5
- Significant? (Vehicle vs. 11c), GTT blood glucose (HFD-fed C57BL/6J mice; 10mpk, 15 min): No
- Mean 2 (11c group), GTT blood glucose (HFD-fed C57BL/6J mice; 10mpk, 15 min): 527.5
- Mean Diff. (Vehicle vs. 11c), GTT blood glucose (HFD-fed C57BL/6J mice; 10mpk, 30 min): 33.08
- Significant? (Vehicle vs. 11c), GTT blood glucose (HFD-fed C57BL/6J mice; 10mpk, 30 min): No
- Mean Diff. (Vehicle vs. 11c), GTT blood glucose (HFD-fed C57BL/6J mice; 10mpk, 60 min): 136.4
- Significant? (Vehicle vs. 11c), GTT blood glucose (HFD-fed C57BL/6J mice; 10mpk, 60 min): No
- Mean 2 (11c group), GTT blood glucose (HFD-fed C57BL/6J mice; 10mpk, 60 min): 486.8
- Mean Diff. (Vehicle vs. 11c), GTT blood glucose (HFD-fed C57BL/6J mice; 10mpk, 90 min): 180.6
- Significant? (Vehicle vs. 11c), GTT blood glucose (HFD-fed C57BL/6J mice; 10mpk, 90 min): Yes
- Mean Diff. (Vehicle vs. 11c), GTT blood glucose (HFD-fed C57BL/6J mice; 10mpk, 120 min): 191.3
- Significant? (Vehicle vs. 11c), GTT blood glucose (HFD-fed C57BL/6J mice; 10mpk, 120 min): Yes
